# Experiments:
# [1] = Changes of serum lipids containing nervonic acid chains after taking acer truncatum bunge seed oil for different days; assay type: in vivo, SD rats; details: for blood levels after taking acer truncatum bunge seed oil compared with before taking: rat blood; for serum lipid content, Day 1 (NA1) / serum lipid content, Day 3 (NA3) / serum lipid content, Day 7 (NA7) / difference in content between the third and the seventh day of administration / content compared with the normal group: rat serum; for serum lipid content, Day 1 (NA1) / serum lipid content, Day 3 (NA3) / serum lipid content, Day 7 (NA7): acer truncatum bunge seed oil group, nervonic acid 0.03 g/kg/d by gavage; for difference in content between the third and the seventh day of administration: day 3 vs day 7; for content compared with the normal group: oil group vs normal control group; for NA7/NA1: ratio of serum content day 7 to day 1
# Protocol: The collected serum samples were thawed on ice, 200 µL plasma was extracted with 600 µL pre-cooled isopropanol, vortexed for 1 min, and incubated at room temperature for 10 min. Then the extraction mixture was stored overnight at -20° C., centrifuged at 4000r for 20 min, and the supernatant was transferred to a new centrifuge tube, diluted with isopropanol/acetonitrile/water (2:1:1, v:v:v) to 1:10. The samples were stored at -80° C. before LC-MS analysis. In addition, 10 µL of each extraction mixture was combined to prepare mixed plasma samples.
# The mixed plasma samples were analyzed using ACQUITY UPLC(Waters, USA) connected to the Xevo-G2XS High Resolution Time of Flight (QTOF) Mass spectrometer (Waters) with ESI. CQUITY UPLC BEH C18 column (2.1× 100 mm, 1.7 µm, Waters), and mobile phase consisted of 10 mM ammonium formate-0.1% formic acid-acetonitrile (A, 60: 40, v/v) and 10 mM ammonium formate-0.1% formic acid-isopropanol-acetonitrile (B, 90:10, v/v) were used. Pilot trials with 10-, 15-, and 20-minute washout periods were conducted prior to the large-scale study to assess the potential impact of mobile phase composition and flow rate on lipid retention time. In PIM, rich lipid precursor ions and fragments separated in the same order, with similar peak shapes and ionic strengths. […] The flow rate of mobile phase was 0.4 mL/min. The column was initially eluted with 40% B, 43% B in 2 min according to linear gradient, and 50% B within 0.1 min, 54%B in 3.9 minutes according to linear gradient, and 70% B within 0.1 min. In the last part of the gradient, the amount of B increased to 99% in 1.9 minutes. Finally, solution B was returned to 40% within 0.1 min and the column was balanced for 1.9 min before the next sample injection. The lipids were detected by Xevo-G2XS QTOF mass spectrometer with a sample size of 5 µL/time, collection range of m/z50~1200 […], and collection time of 0.2 s/time. The ion source temperature was 120° C., the desolutizing temperature was 600° C., the gas flow rate was 1000 L/h, and nitrogen was used as the flowing gas. The capillary voltage was 2.0 kV(+)/the […] was 1.5 kV(-), and the cone voltage was 30 V. A standard quality determination was carried out using leucine enkephalin and corrected with sodium formate solution. The samples were sorted randomly. A quality control (QC) sample was injected into every 10 samples and analyzed to investigate repeatability of the data.
# 50 male SD rats aged 5-6 weeks were randomly divided into 2 groups, which were acer truncatum bunge seed oil group (NA group) and normal control group (CK group). After 1 week of adaptive feeding, rats in each group entered into the experiment. Acer truncatum bunge seed oil group was administrated by gavage according to the content of nervonic acid 0.03 g/kg/d, once a day, and blood was collected after 1, 3 and 7 days. The normal control group was fed routinely, and the blood was collected at the same time as the acer truncatum bunge seed oil group for the detection of lipid SM(d17:1/24:1) and Cer(d18:1/24:1(15Z)) with the nervonic acid chain.
# [2] = Serum lipid content before and after taking acer truncatum bunge seed oil in patients with demyelinating disease; assay type: in vivo, human
# Description: For sample detection, sample pretreatment and ultra-high performance liquid chromatography-mass spectrometry in Example 1 were used. At the same time, standard SM(d17:1/24:1) and Cer(d18:1/24:1(15Z)) were used as reference for detection.
# [3] = human, once a day for one month; cited from earlier work
# [4] = after 1 day of taking the oil, individual patients
blood levels after taking acer truncatum bunge seed oil compared with before taking [1],"serum lipid content, Day 1 (NA1) [1]","serum lipid content, Day 3 (NA3) [1]","serum lipid content, Day 7 (NA7) [1]",difference in content between the third and the seventh day of administration [1],content compared with the normal group [1],NA7/NA1 [1],serum lipid content relative to before taking acer truncatum bunge seed oil ([2]; after 7-day of taking the oil) [times],"serum lipid content relative to before taking acer truncatum bunge seed oil [2, 4] [times]",Compound,"test indexes (mind, picture, recognition, association, sence of touch, understanding) compared with the control group [3]"
> 1.3 times,135883.1,209352.5,172840.3,no significant difference,increased,1.3,1.45,1.23,CCCCCCCC/C=C\CCCCCCCCCCCCCC(=O)N[C@@H](CO)[C@H](O)/C=C/CCCCCCCCCCCCC [Cer(d18:1/24:1(15Z))],–
–,–,–,–,–,–,–,–,–,"CCCCCCCC/C=C\CCCCCCCCCCCCCC(=O)O [nervonic acid, cis-15-Tetracosenic acid]",significantly improved
more than 1.2 times,245574.2,340912.8,291861.8,no significant difference,increased,1.2,1.22,1.15,SM(d17:1/24:1),–

# Source: patent US20230324419A1, “METHOD FOR DIAGNOSING ACTING OF NERVONIC ACID AND USE THEREOF” (BAO FENG BIOTECH (BEIJING) CO., LTD, priority 2020, published 2023)
